Measurements: patent US10040759B2, “Substituted azetidinyl compounds as GlyT1 inhibitors” (DART NEUROSCIENCE (CAYMAN) LTD., priority 2014, dated 2018)

biological target: T1, GlyT1 (Homo sapiens, UniProt P48067); assay: Glycine Transporter 1 (GlyT1) uptake assay, scintillation proximity assay of [14C]-glycine uptake; type: cell-based; details: [14C]-glycine uptake; read-out: GlyT1 (pIC50) (converted)
T1 construct: expressed in transfected cells
T1 sequence (P48067 1-706): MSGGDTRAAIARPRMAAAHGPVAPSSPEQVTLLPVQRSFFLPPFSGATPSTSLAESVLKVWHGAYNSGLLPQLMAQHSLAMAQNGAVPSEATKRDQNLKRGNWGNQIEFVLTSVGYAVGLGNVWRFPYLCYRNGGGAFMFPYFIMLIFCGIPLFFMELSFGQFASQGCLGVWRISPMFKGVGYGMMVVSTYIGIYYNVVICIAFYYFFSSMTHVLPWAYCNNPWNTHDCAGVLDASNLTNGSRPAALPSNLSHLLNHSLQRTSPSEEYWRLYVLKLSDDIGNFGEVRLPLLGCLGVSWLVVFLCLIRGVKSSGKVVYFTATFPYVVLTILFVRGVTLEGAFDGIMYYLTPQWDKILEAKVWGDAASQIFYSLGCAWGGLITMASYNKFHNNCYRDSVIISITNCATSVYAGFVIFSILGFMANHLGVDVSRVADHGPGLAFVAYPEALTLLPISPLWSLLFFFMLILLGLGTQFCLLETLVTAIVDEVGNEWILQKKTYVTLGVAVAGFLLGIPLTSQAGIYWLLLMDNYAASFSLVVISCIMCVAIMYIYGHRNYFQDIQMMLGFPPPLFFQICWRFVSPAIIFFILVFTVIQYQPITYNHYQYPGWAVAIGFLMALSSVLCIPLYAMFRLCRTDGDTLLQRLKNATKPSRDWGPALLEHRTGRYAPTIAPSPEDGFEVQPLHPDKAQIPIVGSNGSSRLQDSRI
Method in brief: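 IC50 values were derived by four-parameter logistic fitting of counts. The 2× compound solutions were made by 1:100 dilution into HBSS of DMSO serial dilutions.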

Structure (SMILES)	IC50 [nM]
COc1c(C#N)ccc(O[C@@H](C)C(F)(F)F)c1C(=O)N1CC(F)(c2ccc(C(F)(F)F)cc2)C1 [Example 69, 3-({3-Fluoro-3-[4-(trifluoromethyl)phenyl]azetidin-1-yl}carbonyl)-2-methoxy-4-{[(2S)-1,1,1-trifluoropropan-2-yl]oxy}benzonitrile]	100 to 1000
COc1c(C#N)ccc(O[C@@H](C)C(F)(F)F)c1C(=O)N1CC(F)(c2ccc(F)c(F)c2)C1 [Example 70, 3-{[3-(3,4-Difluorophenyl)-3-fluoroazetidin-1-yl]carbonyl}-2-methoxy-4-{[(2S)-1,1,1-trifluoropropan-2-yl]oxy}benzonitrile]	100 to 1000
CC(Oc1ccc(C#N)c(Cl)c1C(=O)N1CC(c2cccnc2)C1)C(F)(F)F (stereo not shown) [Example 71, 2-Chloro-3-{[3-(pyridin-3-yl)azetidin-1-yl]carbonyl}-4-[(1,1,1-trifluoropropan-2-yl)oxy]benzonitrile]	100 to 1000
CC(Oc1ccc(C#N)c(Cl)c1C(=O)N1CC(c2ccncc2)C1)C(F)(F)F (stereo not shown) [Example 72, 2-Chloro-3-{[3-(pyridin-4-yl)azetidin-1-yl]carbonyl}-4-[(1,1,1-trifluoropropan-2-yl)oxy]benzonitrile]	100 to 1000
CC(Oc1ccc(C#N)c(Cl)c1C(=O)N1CC(Oc2ccc(F)cc2)C1)C(F)(F)F (stereo not shown) [Example 73, 2-Chloro-3-{[3-(4-fluorophenoxy)azetidin-1-yl]carbonyl}-4-[(1,1,1-trifluoropropan-2-yl)oxy]benzonitrile]	< 100
COc1c(C#N)ccc(OC(C)C(F)(F)F)c1C(=O)N1CC(Oc2ccc(F)cc2)C1 (stereo not shown) [Example 74, 3-{[3-(4-Fluorophenoxy)azetidin-1-yl]carbonyl}-2-methoxy-4-[(1,1,1-trifluoropropan-2-yl)oxy]benzonitrile]	100 to 1000
COc1c(C#N)ccc(OC(C)C(F)(F)F)c1C(=O)N1CC(c2ccncc2)C1 (stereo not shown) [Example 75, 2-Methoxy-3-{[3-(pyridin-4-yl)azetidin-1-yl]carbonyl}-4-[(1,1,1-trifluoropropan-2-yl)oxy]benzonitrile]	1000 to 10000
CC(Oc1ccc(C#N)c(Cl)c1C(=O)N1CC(Oc2ccccc2)C1)C(F)(F)F (stereo not shown) [Example 76, 2-Chloro-3-[(3-phenoxyazetidin-1-yl)carbonyl]-4-[(1,1,1-trifluoropropan-2-yl)oxy]benzonitrile]	1000 to 10000
Cc1ccc(OC2CN(C(=O)c3c(OC(C)C(F)(F)F)ccc(C#N)c3Cl)C2)cc1 (stereo not shown) [Example 77, 2-Chloro-3-{[3-(4-methylphenoxy)azetidin-1-yl]carbonyl}-4-[(1,1,1-trifluoropropan-2-yl)oxy]benzonitrile]	1000 to 10000
COc1c(C#N)ccc(OC(C)C(F)(F)F)c1C(=O)N1CC(Oc2ccc(C)cc2)C1 (stereo not shown) [Example 78, 2-Methoxy-3-{[3-(4-methylphenoxy)azetidin-1-yl]carbonyl}-4-[(1,1,1-trifluoropropan-2-yl)oxy]benzonitrile]	1000 to 10000
CC(Oc1ccc(C#N)c(Cl)c1C(=O)N1CC(c2ccc(C#N)cc2)C1)C(F)(F)F (stereo not shown) [Example 79, 2-Chloro-3-{[3-(4-cyanophenyl)azetidin-1-yl]carbonyl}-4-[(1,1,1-trifluoropropan-2-yl)oxy]benzonitrile]	1000 to 10000
COc1ccc(C2CN(C(=O)c3c(OC(C)C(F)(F)F)ccc(C#N)c3Cl)C2)cc1 (stereo not shown) [Example 80, 2-Chloro-3-{[3-(4-methoxyphenyl)azetidin-1-yl]carbonyl}-4-[(1,1,1-trifluoropropan-2-yl)oxy]benzonitrile]	1000 to 10000
CC(Oc1ccc(C#N)c(Cl)c1C(=O)N1CC(c2ccc(F)c(F)c2)C1)C(F)(F)F (stereo not shown) [Example 81, 2-Chloro-3-{[3-(3,4-difluorophenyl)azetidin-1-yl]carbonyl}-4-[(1,1,1-trifluoropropan-2-yl)oxy]benzonitrile]	1000 to 10000
CC(Oc1ccc(C#N)c(Cl)c1C(=O)N1CC(c2cc(F)cc(F)c2)C1)C(F)(F)F (stereo not shown) [Example 82, 2-Chloro-3-{[3-(3,5-difluorophenyl)azetidin-1-yl]carbonyl}-4-[(1,1,1-trifluoropropan-2-yl)oxy]benzonitrile]	1000 to 10000
CC(Oc1ccc(C#N)c(Cl)c1C(=O)N1CC(c2ccc(Cl)cc2)C1)C(F)(F)F (stereo not shown) [Example 83, 2-Chloro-3-{[3-(4-chlorophenyl)azetidin-1-yl]carbonyl}-4-[(1,1,1-trifluoropropan-2-yl)oxy]benzonitrile]	100 to 1000
CC(Oc1ccc(C#N)c(Cl)c1C(=O)N1CC(c2ccccc2C(F)(F)F)C1)C(F)(F)F (stereo not shown) [Example 84, 2-Chloro-3-({3-[2-(trifluoromethyl)phenyl]azetidin-1-yl}carbonyl)-4-[(1,1,1-trifluoropropan-2-yl)oxy]benzonitrile]	100 to 1000

Other lines, results leading:

IC50 [nM]	Structure (SMILES)
100 to 1000	CC(Oc1ccc(C#N)c(Cl)c1C(=O)N1CC(c2cccc(C(F)(F)F)c2)C1)C(F)(F)F (stereo not shown) [Example 85, 2-Chloro-3-({3-[3-(trifluoromethyl)phenyl]azetidin-1-yl}carbonyl)-4-[(1,1,1-trifluoropropan-2-yl)oxy]benzonitrile]
100 to 1000	CC(Oc1ccc(C#N)c(Cl)c1C(=O)N1CC(c2ccc(F)cc2)C1)C(F)(F)F (stereo not shown) [Example 86, 2-Chloro-3-{[3-(4-fluorophenyl)azetidin-1-yl]carbonyl}-4-[(1,1,1-trifluoropropan-2-yl)oxy]benzonitrile]
100 to 1000	CC(Oc1ccc(C#N)c(Cl)c1C(=O)N1CC(c2ccccc2F)C1)C(F)(F)F (stereo not shown) [Example 87, 2-Chloro-3-{[3-(2-fluorophenyl)azetidin-1-yl]carbonyl}-4-[(1,1,1-trifluoropropan-2-yl)oxy]benzonitrile]
100 to 1000	CC(Oc1ccc(C#N)c(Cl)c1C(=O)N1CC(c2ccccn2)C1)C(F)(F)F (stereo not shown) [Example 88, 2-Chloro-3-{[3-(pyridin-2-yl)azetidin-1-yl]carbonyl}-4-[(1,1,1-trifluoropropan-2-yl)oxy]benzonitrile]
< 100	COc1ccc(OC2CN(C(=O)c3c(OC(C)C(F)(F)F)ccc(C#N)c3Cl)C2)cc1 (stereo not shown) [Example 89, 2-Chloro-3-{[3-(4-methoxyphenoxy)azetidin-1-yl]carbonyl}-4-[(1,1,1-trifluoropropan-2-yl)oxy]benzonitrile]
< 100	COc1c(C#N)ccc(OC(C)C(F)(F)F)c1C(=O)N1CC(c2ccccc2C(F)(F)F)C1 (stereo not shown) [Example 90, 2-Methoxy-3-({3-[2-(trifluoromethyl)phenyl]azetidin-1-yl}carbonyl)-4-[(1,1,1-trifluoropropan-2-yl)oxy]benzonitrile]
< 100	COc1c(C#N)ccc(OC(C)C(F)(F)F)c1C(=O)N1CC(c2ccc(F)cc2)C1 (stereo not shown) [Example 91, 3-{[3-(4-Fluorophenyl)azetidin-1-yl]carbonyl}-2-methoxy-4-[(1,1,1-trifluoropropan-2-yl)oxy]benzonitrile]
100 to 1000	COc1c(C#N)ccc(OC(C)C(F)(F)F)c1C(=O)N1CC(c2ccccc2F)C1 (stereo not shown) [Example 92, 3-{[3-(2-Fluorophenyl)azetidin-1-yl]carbonyl}-2-methoxy-4-[(1,1,1-trifluoropropan-2-yl)oxy]benzonitrile]
< 100	COc1c(C#N)ccc(OC(C)C(F)(F)F)c1C(=O)N1CC(c2ccccn2)C1 (stereo not shown) [Example 93, 2-Methoxy-3-{[3-(pyridin-2-yl)azetidin-1-yl]carbonyl}-4-[(1,1,1-trifluoropropan-2-yl)oxy]benzonitrile]
> 10000	COc1ccc(OC2CN(C(=O)c3c(OC(C)C(F)(F)F)ccc(C#N)c3OC)C2)cc1 (stereo not shown) [Example 94, 2-Methoxy-3-{[3-(4-methoxyphenoxy)azetidin-1-yl]carbonyl}-4-[(1,1,1-trifluoropropan-2-yl)oxy]benzonitrile]
100 to 1000	COc1c(C#N)ccc(OC(C)C(F)(F)F)c1C(=O)N1CC(c2ccc(C#N)cc2)C1 (stereo not shown) [Example 95, 3-{[3-(4-Cyanophenyl)azetidin-1-yl]carbonyl}-2-methoxy-4-[(1,1,1-trifluoropropan-2-yl)oxy]benzonitrile]
< 100	COc1ccc(C2CN(C(=O)c3c(OC(C)C(F)(F)F)ccc(C#N)c3OC)C2)cc1 (stereo not shown) [Example 96, 2-Methoxy-3-{[3-(4-methoxyphenyl)azetidin-1-yl]carbonyl}-4-[(1,1,1-trifluoropropan-2-yl)oxy]benzonitrile]
100 to 1000	COc1c(C#N)ccc(OC(C)C(F)(F)F)c1C(=O)N1CC(c2ccc(Cl)cc2)C1 (stereo not shown) [Example 97, 3-{[3-(4-Chlorophenyl)azetidin-1-yl]carbonyl}-2-methoxy-4-[(1,1,1-trifluoropropan-2-yl)oxy]benzonitrile]
100 to 1000	COc1c(C#N)ccc(OC(C)C(F)(F)F)c1C(=O)N1CC(c2ccc(C(F)(F)F)cc2)C1 (stereo not shown) [Example 98, 2-Methoxy-3-({3-[4-(trifluoromethyl)phenyl]azetidin-1-yl}carbonyl)-4-[(1,1,1-trifluoropropan-2-yl)oxy]benzonitrile]
< 100	COc1c(C#N)ccc(OC(C)C(F)(F)F)c1C(=O)N1CC(c2cccc(C(F)(F)F)c2)C1 (stereo not shown) [Example 99, 2-Methoxy-3-({3-[3-(trifluoromethyl)phenyl]azetidin-1-yl}carbonyl)-4-[(1,1,1-trifluoropropan-2-yl)oxy]benzonitrile]
